Laboratory results published in patent publication US10065972B2, “Bicyclic or tricyclic heterocyclic compound” (MITSUBISHI TANABE PHARMA CORPORATION, priority 2014, dated 2018).
Where a name gives a salt, the structure may show the parent alone.

molecular target: human recombinant KAT-II (Homo sapiens (Human), UniProt Q8N5Z0); test: KAT-II inhibitory test; format: biochemical; details: 3.0 μmol/L kynurenine, 37° C., 1 hr, pH 8.0; kynurenic acid quantified by HPLC
Method in brief: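 Kynurenic acid formation was measured by HPLC fluorescence (354 nm excitation, 460 nm emission) against an external standard curve. The substrate was 3.0 μmol/L kynurenine with 10 μmol/L pyridoxal phosphate, at pH 8.0 Tris-acetate, 37 °C for 1 hr, using 2.0 ng/μL amylose-purified N-terminal His/MBP-tagged recombinant enzyme. Duplicate measurements were made per concentration.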

human recombinant KAT-II, sequence (Q8N5Z0 30-425): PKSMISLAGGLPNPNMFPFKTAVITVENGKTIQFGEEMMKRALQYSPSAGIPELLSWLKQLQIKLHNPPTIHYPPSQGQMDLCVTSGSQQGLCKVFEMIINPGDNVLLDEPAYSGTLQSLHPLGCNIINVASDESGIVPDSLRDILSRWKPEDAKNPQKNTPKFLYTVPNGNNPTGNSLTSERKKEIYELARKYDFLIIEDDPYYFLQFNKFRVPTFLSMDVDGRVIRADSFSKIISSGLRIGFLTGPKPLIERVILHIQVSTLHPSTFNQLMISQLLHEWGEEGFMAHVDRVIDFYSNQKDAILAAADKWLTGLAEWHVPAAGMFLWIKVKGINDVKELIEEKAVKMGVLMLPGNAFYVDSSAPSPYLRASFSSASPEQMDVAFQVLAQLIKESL

Going from `Cn1c(C(F)F)nc2sc(N3CCC[C@@H]3C(=O)NCc3ccccc3)nc2c1=O` [Example 281, (R)-N-benzyl-1-(5-difluoromethyl-6-methyl-7-oxo-6,7-dihydro-[1,3]thiazolo[5,4-d]pyrimidin-2-yl)pyrrolidine-2-carboxamide] to `C[C@H](c1nc2sc(N3CCC[C@@H]3C(=O)NCc3ccccc3)nc2c(=O)n1C)N(C)C` [Example 376, (R)-N-benzyl-1-{5-[(R)-1-(N′,N′-dimethylamino)ethyl]-6-methyl-7-oxo-6,7-dihydro[1,3]thiazolo[5,4-d]pyrimidin-2-yl}pyrrolidine-2-carboxamide], the IC50 falls from 0.027 µM to 0.014 µM (1.9-fold).

Going from `CN(C)CCCn1c(C(F)(F)F)nc2sc(N3CCC[C@@H]3C(=O)NCc3ccccc3)nc2c1=O` [Example 294, (R)-N-benzyl-1-{6-[3-(N′,N′-dimethylamino)propyl]-7-oxo-5-trifluoromethyl-6,7-dihydro-[1,3]thiazolo[5,4-d]pyrimidin-2-yl}pyrrolidine-2-carboxamide] to `CN(C)CCn1c(C(F)(F)F)nc2sc(N3CCC[C@@H]3C(=O)NCc3ccccc3)nc2c1=O` [Example 372, (R)-N-benzyl-1-{6-[2-(N′,N′-dimethylamino)ethyl]-7-oxo-5-trifluoromethyl-6,7-dihydro[1,3]thiazolo[5,4-d]pyrimidin-2-yl}pyrrolidine-2-carboxamide], the IC50 falls from 0.17 µM to 0.039 µM (4.4-fold).

First: Cn1c(-c2ncccc2F)nc2sc(N3CCC[C@@H]3C(=O)NCc3ccccc3)nc2c1=O [Example 298, (R)-N-benzyl-1-[5-(3-fluoropyridin-2-yl)-6-methyl-7-oxo-6,7-dihydro-[1,3]thiazolo[5,4-d]pyrimidin-2-yl]pyrrolidine-2-carboxamide]
Second: Cn1c(-c2ccccc2F)nc2sc(N3CCC[C@@H]3C(=O)NCc3ccccc3)nc2c1=O [Example 345, (R)-N-benzyl-1-[5-(2-fluorophenyl)-6-methyl-7-oxo-6,7-dihydro[1,3]thiazolo[5,4-d]pyrimidin-2-yl]pyrrolidine-2-carboxamide]
The IC50 of the first is 3-fold higher: 0.026 µM for the first, 0.0087 µM for the second.

First: CCn1c(C(F)F)nc2sc(N3CCC[C@@H]3C(=O)N[C@@H](c3ccccc3)C3CC3)nc2c1=O [Example 299, (R)-N-[(R)-cyclopropyl(phenyl)methyl]-1-(5-difluoromethyl-6-ethyl-7-oxo-6,7-dihydro-[1,3]thiazolo[5,4-d]pyrimidin-2-yl)pyrrolidine-2-carboxamide]
Second: CCn1c(C(F)F)nc2sc(N3CCC[C@@H]3C(=O)N[C@H](COC)c3ccccc3)nc2c1=O [Example 300, (R)-1-(5-difluoromethyl-6-ethyl-7-oxo-6,7-dihydro-[1,3]thiazolo[5,4-d]pyrimidin-2-yl)-N-((S)-2-methoxy-1-phenylethyl)pyrrolidine-2-carboxamide]
The IC50 of the first is 2.6-fold higher: 0.46 µM for the first, 0.18 µM for the second. The second is the more potent here.

Compared with `CCn1c(C(F)F)nc2sc(N3CCC[C@@H]3C(=O)N[C@@H](c3ccccc3)C(F)(F)F)nc2c1=O` [Example 301, (R)-1-(5-difluoromethyl-6-ethyl-7-oxo-6,7-dihydro-[1,3]thiazolo[5,4-d]pyrimidin-2-yl)pyrrolidine-N-((S)-2,2,2-trifluoro-1-phenylethyl)-2-carboxamide], `CCn1c(C(F)F)nc2sc(N3CCC[C@@H]3C(=O)NCc3ccco3)nc2c1=O` [Example 307, (R)-1-(5-difluoromethyl-6-ethyl-7-oxo-6,7-dihydro-[1,3]thiazolo[5,4-d]pyrimidin-2-yl)-N-[(furan-2-yl)methyl]pyrrolidine-2-carboxamide] is 22-fold lower in IC50: 2.6 µM for the first, 0.12 µM for the second. The second is the more potent here.

Compared with `CCn1c(C(F)F)nc2sc(N3CCC[C@@H]3C(=O)NCc3ccc4c(c3)OCO4)nc2c1=O` [Example 304, (R)-N-[(benzo[1,3]dioxo-5-yl)methyl]-1-(5-difluoromethyl-6-ethyl-7-oxo-6,7-dihydro-[1,3]thiazolo[5,4-d]pyrimidin-2-yl)pyrrolidine-2-carboxamide], `CCn1c(C(F)F)nc2sc(N3CCC[C@@H]3C(=O)NCc3cccs3)nc2c1=O` [Example 309, (R)-1-(5-difluoromethyl-6-ethyl-7-oxo-6,7-dihydro-[1,3]thiazolo[5,4-d]pyrimidin-2-yl)-N-[(thiophen-2-yl)methyl]pyrrolidine-2-carboxamide] is 2.9-fold higher in IC50: 0.021 µM for the first, 0.061 µM for the second. The first is the more potent here.

First: CCn1c(C(F)F)nc2sc(N3CCC[C@@H]3C(=O)NCc3cc(C)on3)nc2c1=O [Example 311, (R)-1-(5-difluoromethyl-6-ethyl-7-oxo-6,7-dihydro-[1,3]thiazolo[5,4-d]pyrimidin-2-yl)-N-[(5-methyl-isoxazol-3-yl)methyl]pyrrolidine-2-carboxamide]
Second: CCn1c(C(F)F)nc2sc(N3CCC[C@@H]3C(=O)NCc3cc(C)nn3C)nc2c1=O [Example 313, (R)-1-(5-difluoromethyl-6-ethyl-7-oxo-6,7-dihydro-[1,3]thiazolo[5,4-d]pyrimidin-2-yl)-N-[(2,5-dimethyl-2H-pyrazol-3-yl)methyl]pyrrolidine-2-carboxamide]
The IC50 of the first is 3.2-fold lower: 0.34 µM for the first, 1.1 µM for the second.

Going from `CCn1c(C(F)F)nc2sc(N3CCC[C@@H]3C(=O)NCc3nccs3)nc2c1=O` [Example 314, (R)-1-(5-difluoromethyl-6-ethyl-7-oxo-6,7-dihydro-[1,3]thiazolo[5,4-d]pyrimidin-2-yl)-N-[(1,3-thiazol-2-yl)methyl]pyrrolidine-2-carboxamide] to `CNCCn1c(C(F)(F)F)nc2sc(N3CCC[C@@H]3C(=O)NCc3ccccc3)nc2c1=O` [Example 363, (R)-N-benzyl-1-[6-(2-methylaminoethyl)-7-oxo-5-trifluoromethyl-6,7-dihydro[1,3]thiazolo[5,4-d]pyrimidin-2-yl]pyrrolidine-2-carboxamide], the IC50 falls from 0.61 µM to 0.12 µM (5.1-fold).

Compared with `COC1CN(Cc2nc3sc(N4CCC[C@@H]4C(=O)NCc4ccccc4)nc3c(=O)n2C)C1` [Example 321, (R)-N-benzyl-1-{5-[(3-methoxyazetidin-1-yl)methyl]-6-methyl-7-oxo-6,7-dihydro[1,3]thiazolo[5,4-d]pyrimidin-2-yl}pyrrolidine-2-carboxamide], `Cn1c(CN2CCOCC2)nc2sc(N3CCC[C@@H]3C(=O)NCc3ccccc3)nc2c1=O` [Example 322, (R)-N-benzyl-1-{6-methyl-5-[(morpholin-4-yl)methyl]-7-oxo-6,7-dihydro[1,3]thiazolo[5,4-d]pyrimidin-2-yl}pyrrolidine-2-carboxamide] is 3.5-fold lower in IC50: 0.07 µM for the first, 0.02 µM for the second. The second is the more potent here.

First: CN(C)Cc1nc2sc(N3CCC[C@@H]3C(=O)NCc3ccccc3)nc2c(=O)n1C [Example 323, (R)-N-benzyl-1-{5-[(N′,N′-dimethylamino)methyl]-6-methyl-7-oxo-6,7-dihydro[1,3]thiazolo[5,4-d]pyrimidin-2-yl}pyrrolidine-2-carboxamide]
Second: CN(C)c1nc2sc(N3CCC[C@@H]3C(=O)NCc3ccccc3)nc2c(=O)n1C [Example 335, (R)-N-benzyl-1-[5-(N′,N′-dimethylamino)-6-methyl-7-oxo-6,7-dihydro[1,3]thiazolo[5,4-d]pyrimidin-2-yl]pyrrolidine-2-carboxamide]
The IC50 of the first is 14-fold higher: 0.078 µM for the first, 0.0056 µM for the second. The second is the more potent here.

Compared with `Cn1c(CN2Cc3ccccc3C2)nc2sc(N3CCC[C@@H]3C(=O)NCc3ccccc3)nc2c1=O` [Example 328, (R)-N-benzyl-1-{5-[(1,3-dihydro-2H-isoindol-2-yl)methyl]-6-methyl-7-oxo-6,7-dihydro[1,3]thiazolo[5,4-d]pyrimidin-2-yl}pyrrolidine-2-carboxamide], `CN(Cc1nc2sc(N3CCC[C@@H]3C(=O)NCc3ccccc3)nc2c(=O)n1C)CC(F)(F)F` [Example 333, (R)-N-benzyl-1-[6-methyl-5-{[N′-methyl-N′-(2,2,2-trifluoroethyl)amino]methyl}-7-oxo-6,7-dihydro[1,3]thiazolo[5,4-d]pyrimidin-2-yl]pyrrolidine-2-carboxamide] is 2.9-fold higher in IC50: 0.017 µM for the first, 0.049 µM for the second. The first is the more potent here.

Going from `Cn1c(N2CCCCC2)nc2sc(N3CCC[C@@H]3C(=O)NCc3ccccc3)nc2c1=O` [Example 337, (R)-N-benzyl-1-[6-methyl-7-oxo-5-(piperidin-1-yl)-6,7-dihydro[1,3]thiazolo[5,4-d]pyrimidin-2-yl]pyrrolidine-2-carboxamide] to `Cn1c(N2CCOCC2)nc2sc(N3CCC[C@@H]3C(=O)NCc3ccccc3)nc2c1=O` [Example 339, (R)-N-benzyl-1-[6-methyl-5-(morpholin-4-yl)-7-oxo-6,7-dihydro[1,3]thiazolo[5,4-d]pyrimidin-2-yl]pyrrolidine-2-carboxamide], the IC50 rises from 0.0044 µM to 0.0079 µM (1.8-fold). The first is the more potent here.

Going from `CC(C)Nc1nc2sc(N3CCC[C@@H]3C(=O)NCc3ccccc3)nc2c(=O)n1C` [Example 341, (R)-N-benzyl-1-{6-methyl-7-oxo-5-[(propan-2-yl)amino]-6,7-dihydro[1,3]thiazolo[5,4-d]pyrimidin-2-yl}pyrrolidine-2-carboxamide] to `CN(C)CCOc1nc2sc(N3CCC[C@@H]3C(=O)NCc3ccccc3)nc2c(=O)n1C` [Example 406, (R)-N-benzyl-1-{5-[2-(N′,N′-dimethylamino)ethoxy]-6-methyl-7-oxo-6,7-dihydro[1,3]thiazolo[5,4-d]pyrimidin-2-yl}pyrrolidine-2-carboxamide], the IC50 rises from 0.011 µM to 0.37 µM (34-fold). The first is the more potent here.

First: CN1CCC(Cn2c(C(F)(F)F)nc3sc(N4CCC[C@@H]4C(=O)NCc4ccccc4)nc3c2=O)CC1 [Example 366, (R)-N-benzyl-1-{6-[(1-methylpiperidin-4-yl)methyl]-7-oxo-5-trifluoromethyl-6,7-dihydro[1,3]thiazolo[5,4-d]pyrimidin-2-yl}pyrrolidine-2-carboxamide]
Second: O=C(NCc1ccccc1)[C@H]1CCCN1c1nc2c(=O)n(CCO)c(C(F)(F)F)nc2s1 [Example 396, (R)-N-benzyl-1-[6-(2-hydroxyethyl)-7-oxo-5-trifluoromethyl-6,7-dihydro[1,3]thiazolo[5,4-d]pyrimidin-2-yl]pyrrolidine-2-carboxamide]
The IC50 of the first is 2-fold higher: 0.15 µM for the first, 0.076 µM for the second.

In the case of `CN(CCn1c(C(F)(F)F)nc2sc(N3CCC[C@@H]3C(=O)NCc3ccccc3)nc2c1=O)CC(F)(F)F` [Example 373, (R)-N-benzyl-1-[6-{2-[N′-methyl-N′-(2,2,2-trifluoroethyl)amino]ethyl}-7-oxo-5-trifluoromethyl-6,7-dihydro[1,3]thiazolo[5,4-d]pyrimidin-2-yl]pyrrolidine-2-carboxamide hydrochloride], the IC50 is reported as 0.008 µM.
